{"source": "patent US20150125397A1", "about": "“DUAL SPECIFIC BINDING PROTEINS DIRECTED AGAINST IMMUNE CELL RECEPTORS AND AUTOANTIGENS” (ABBVIE INC., priority 2013, published 2015)", "assay_type_in_all_cases": "cell-based, mouse", "key": {"[1]": {"test_system": "Dnase2−/− Ifnar1−/− Unc93b1−/− TKO B cells", "experiment": "3H-thymidine incorporation of B220-purified B cells, TKO", "conditions": "24 hours, FIG. 10C", "from_the_text": "(§1) Mice: RF and Tlr-9^−/− mice have been described previously (Uccellini et al. (2008) J. Immunol. 181:5875-5884), The DNase II-deficient mice on a C57BL/6 background were kindly provided by Dr. S, Nagata and obtained from the RIKEN Institute. […] and Unc93B1-deficient mice were obtained from Jackson Lab. DnaseII^−/− Ifnar1^−/− (Het), DnaseII^−/− Ifnar1−/− (DKO), and DnaseII^−/− Unc93b1^−/− (TKO), were bred at UMMS. All mice were maintained at the Department of Animal Medicine of the University of Massachusetts Medical School in accordance with the regulations of the American Association for the Accreditation of Laboratory Animal Care.\n(§2) Proliferation of B220+ B cells: B cells were purified by magnetic bead separation using CD45R/B220-conjugated magnetic particles (BD Biosciences, San Jose, Calif., USA) and stimulated as described previously (Nundel et al. (2013) J. Leukoc. Biol. 94:865-875) with 15 μg/ml goat anti-mouse IgM F(ab′)2 (Jackson ImmunoResearch), ODN1826 (CpG; Idera Pharmaceuticals), anti-DNA-mAb (Leadbetter et al. (2002) Nature 416:603-607), or DVD-Ig proteins (1 μg/ml). B cell proliferation was assessed by ^3H-thymidine (Amersham Biosciences, Piscataway, N.J., USA) incorporation at 24 hours post-stimulation. For long-term proliferation assays, B220-purified B cells were labeled with a final concentration of 2.5 μM CFSE (Life Technologies) in PBS for 2 minutes. […]"}, "[2]": {"test_system": "Dnase2−/− Ifnar1−/− DKO B cells", "experiment": "3H-thymidine incorporation of B220-purified B cells, DKO", "conditions": "24 hours, FIG. 10C", "from_the_text": "as §1, §2"}, "[3]": {"test_system": "Primary murine B cells", "experiment": "CFSE dilution / Sytox Blue FACS of primary murine B cells", "conditions": "72 hours; absence of BLyS; FIG. 3", "method": "Primary murine B cells were purified by positive selection as described above. For cultures >48 hours old, proliferation was quantified by carboxyfluorescein diacetate, succinimidyl ester (CFSE) dilution and cell death by TO-PRO-3 binding. To label the cells with CFSE, the cells were first washed 2 times with PBS. Next, the stock of CFSE was diluted to 10 μM in PBS and the cells were brought to 1×10^7 cells/ml. The cells were mixed at a 1:1 ratio with 10 μM CFSE and mixed gently for 2 minutes. The CFSE labeling reaction was stopped by adding heat inactivated fetal calf serum equal in volume to the starting volume for the cell suspension. […] Proliferation was measured by fluorophore dilution at 60-72 hours by flow cytometry. […]\nPrimary murine B cells were labeled and prepared as in Example 2.7 and stimulated with either media alone, […] of TLR9 ligand CpG oligodeoxynucleotide (ODN) 1826, […] of the mouse anti-chromatin autoantibody PL2-3 or […] DVD3759 in the presence or absence of […] of the B cell survival factor BLyS. After 72 hours, cells were stained with 1 μM of the cell permeable DNA stain Sytox Blue and analyzed by fluorescence activated cell sorting (FACS). Cell division was determined by dilution of CFSE and dead cells were identified by staining with Sytox Blue."}}, "data": [{"substance": "ODN 1826 [reference compound]", "values": [{"measurement": "response of TKO B cells", "setting": "[1]", "value": "failed to respond"}, {"measurement": "response of DKO B cells", "setting": "[2]", "value": "normal response"}, {"measurement": "cell division (CFSE dilution) and cell death (Sytox Blue)", "setting": "[3]", "value": "post-proliferative cell death was not observed"}]}]}
